Data as given in PubChem BioAssay AID1963959 (Molecular Pharmacology Branch, DTP, NCI, 2024).

Test system: T-47D spheroids with HUVEC/MSC, viability
Test: Anticancer human tumor T-47D cell line growth inhibition [PI3K];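 note: spheroids exposed to agents for seven days before reading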;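 for viability, T/C: percent of DMSO vehicle control luminescence so 100% = untreated growth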
Conditions: for IC50: curve of first compound; for viability, T/C: stronger effect = lower value
Procedure, shortened: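 Stroma-containing spheroids: tumor line, pooled-donor HUVEC, hMSC. Treatments: targeted agents with PI3K inhibitors. Dosing: clinically relevant, half-log spacing, 10 microM ceiling without known Cmax. Read-out: cell viability.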

[1] = second compound 0.0316 µM, first compound 0.0316 µM
[2] = second compound 0.0316 µM, first compound 0.1 µM
[3] = second compound 0.0316 µM, first compound 0.316 µM
[4] = second compound 0.0316 µM, first compound 1 µM
[5] = second compound 0.0316 µM, first compound 3.16 µM
[6] = second compound 0.0316 µM, first compound 10 µM
[7] = second compound 0.1 µM, first compound 0.0316 µM
[8] = second compound 0.1 µM, first compound 0.1 µM
[9] = second compound 0.1 µM, first compound 0.316 µM
[10] = second compound 0.1 µM, first compound 1 µM
[11] = second compound 0.1 µM, first compound 3.16 µM
[12] = second compound 0.1 µM, first compound 10 µM
[13] = second compound 0.316 µM, first compound 0.0316 µM
[14] = second compound 0.316 µM, first compound 0.1 µM
[15] = second compound 0.316 µM, first compound 0.316 µM
[16] = second compound 0.316 µM, first compound 1 µM
[17] = second compound 0.316 µM, first compound 3.16 µM
[18] = second compound 0.316 µM, first compound 10 µM
[19] = second compound 1 µM, first compound 0.0316 µM
[20] = second compound 1 µM, first compound 0.1 µM
[21] = second compound 1 µM, first compound 0.316 µM
[22] = second compound 1 µM, first compound 1 µM
[23] = second compound 1 µM, first compound 3.16 µM
[24] = second compound 1 µM, first compound 10 µM
[25] = second compound 3.16 µM, first compound 0.0316 µM
[26] = second compound 3.16 µM, first compound 0.1 µM
[27] = second compound 3.16 µM, first compound 0.316 µM
[28] = second compound 3.16 µM, first compound 1 µM
[29] = second compound 3.16 µM, first compound 3.16 µM
[30] = second compound 3.16 µM, first compound 10 µM
[31] = second compound 10 µM, first compound 0.0316 µM
[32] = second compound 10 µM, first compound 0.1 µM
[33] = second compound 10 µM, first compound 0.316 µM
[34] = second compound 10 µM, first compound 1 µM
[35] = second compound 10 µM, first compound 3.16 µM
[36] = second compound 10 µM, first compound 10 µM

C#Cc1c(F)ccc2cc(O)cc(-c3ncc4c(N5CC6CCC(C5)N6)nc(OCC56CCCN5CC(F)C6)nc4c3F)c12 (centres undefined) + CC(Nc1ncnc2nc[nH]c12)c1cc2cccc(Cl)c2c(=O)n1-c1ccccc1
IC50 (second compound 0.0316 µM): > 10 µM | IC50 (second compound 0.1 µM): > 10 µM | IC50 (second compound 0.316 µM): > 10 µM | IC50 (second compound 1 µM): > 10 µM | IC50 (second compound 3.16 µM): > 10 µM | IC50 (second compound 10 µM): > 10 µM | viability, T/C [1]: 101% | viability, T/C [2]: 116% | viability, T/C [3]: 96.5% | viability, T/C [4]: 106% | viability, T/C [5]: 102% | viability, T/C [6]: 104% | viability, T/C [7]: 96.4% | viability, T/C [8]: 86.3% | viability, T/C [9]: 106% | viability, T/C [10]: 106% | viability, T/C [11]: 110% | viability, T/C [12]: 89.3% | viability, T/C [13]: 109% | viability, T/C [14]: 80.9% | viability, T/C [15]: 104% | viability, T/C [16]: 95.2% | viability, T/C [17]: 106% | viability, T/C [18]: 97.8% | viability, T/C [19]: 92.4% | viability, T/C [20]: 116% | viability, T/C [21]: 97.5% | viability, T/C [22]: 76.7% | viability, T/C [23]: 116% | viability, T/C [24]: 93.1% | viability, T/C [25]: 92.6% | viability, T/C [26]: 93.5% | viability, T/C [27]: 101% | viability, T/C [28]: 84.3% | viability, T/C [29]: 86.8% | viability, T/C [30]: 86% | viability, T/C [31]: 107% | viability, T/C [32]: 91.3% | viability, T/C [33]: 109% | viability, T/C [34]: 87.9% | viability, T/C [35]: 97.3% | viability, T/C [36]: 89.6%

CC1(C)CCC(Nc2ncc(C(F)(F)F)c(-c3c[nH]c4c(P(C)(C)=O)c(C#N)ccc34)n2)CN1 (centres undefined) + CC(Nc1ncnc2nc[nH]c12)c1cc2cccc(Cl)c2c(=O)n1-c1ccccc1
IC50 (second compound 0.0316 µM): > 10 µM | IC50 (second compound 0.1 µM): > 10 µM | IC50 (second compound 0.316 µM): > 10 µM | IC50 (second compound 1 µM): > 10 µM | IC50 (second compound 3.16 µM): > 10 µM | IC50 (second compound 10 µM): 4.1 µM | viability, T/C [1]: 73.3% | viability, T/C [2]: 62.5% | viability, T/C [3]: 67.2% | viability, T/C [4]: 71.9% | viability, T/C [5]: 76.9% | viability, T/C [6]: 48.4% | viability, T/C [7]: 72.9% | viability, T/C [8]: 69.9% | viability, T/C [9]: 69.7% | viability, T/C [10]: 59.8% | viability, T/C [11]: 78.2% | viability, T/C [12]: 48.6% | viability, T/C [13]: 60.4% | viability, T/C [14]: 70.9% | viability, T/C [15]: 66% | viability, T/C [16]: 64.6% | viability, T/C [17]: 75.5% | viability, T/C [18]: 51% | viability, T/C [19]: 62.2% | viability, T/C [20]: 63.5% | viability, T/C [21]: 69.6% | viability, T/C [22]: 57.6% | viability, T/C [23]: 64.2% | viability, T/C [24]: 47.1% | viability, T/C [25]: 57.5% | viability, T/C [26]: 60.3% | viability, T/C [27]: 66.4% | viability, T/C [28]: 60% | viability, T/C [29]: 66.8% | viability, T/C [30]: 40.5% | viability, T/C [31]: 47.4% | viability, T/C [32]: 60.1% | viability, T/C [33]: 64.6% | viability, T/C [34]: 51.7% | viability, T/C [35]: 57.2% | viability, T/C [36]: 29%
